Reference: article PMC7288026, “Novel Class of Chalcone Oxime Ethers as Potent Monoamine Oxidase-B and Acetylcholinesterase Inhibitors” (Molecules, 2020)
Read-outs that look alike come from different tables or passages of the source.

Assays:
recombinant hMAO-A = biological target: T1, recombinant hMAO-A (Homo sapiens, UniProt P21397); test: MAO-A inhibition assay (kynuramine substrate); assay type: biochemical; details: for remaining activity at 1 µM: read-out: Residual Activity (%) MAO-A (1.0 µM); for IC50: mean ± standard error of duplicates, reference compounds after 30 min preincubation with enzyme
T1 construct: purchased Sigma-Aldrich
T1 sequence (P21397 1-527): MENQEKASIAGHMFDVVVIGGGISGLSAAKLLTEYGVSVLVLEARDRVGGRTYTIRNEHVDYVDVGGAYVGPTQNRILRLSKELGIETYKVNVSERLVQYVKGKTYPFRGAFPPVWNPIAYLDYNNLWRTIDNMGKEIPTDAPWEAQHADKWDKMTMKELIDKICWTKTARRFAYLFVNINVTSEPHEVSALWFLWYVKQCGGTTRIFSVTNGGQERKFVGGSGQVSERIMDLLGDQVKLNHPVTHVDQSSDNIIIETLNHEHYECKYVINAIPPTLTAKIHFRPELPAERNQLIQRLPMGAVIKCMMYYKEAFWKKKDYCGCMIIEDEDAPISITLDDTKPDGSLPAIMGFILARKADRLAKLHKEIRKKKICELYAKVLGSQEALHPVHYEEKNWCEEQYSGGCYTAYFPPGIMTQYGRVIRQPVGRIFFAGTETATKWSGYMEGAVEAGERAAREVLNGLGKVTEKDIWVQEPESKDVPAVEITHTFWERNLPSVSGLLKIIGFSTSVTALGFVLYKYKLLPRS
Experimental: (§1) Recombinant hMAO-A and hMAO-B activities were assayed while using kynuramine (0.06 mM) and benzylamine (0.3 mM) as substrates, respectively, as described previously. […] AChE activity was measured using Type VI-S from Electrophorus electricus in the presence of 0.5 mM 5,5’-dithiobis(2-nitrobenzoic acid) and 0.5 mM acetylthiocholine iodide, as described previously. Enzymes and chemicals were purchased from Sigma–Aldrich (St. Louis, MO, USA).
AChE inhibitory activities were also determined, except at a concentration of 10 µM. […] Kinetic experiments were carried out at five substrate and three inhibitor concentrations.

MAO-B = biological target: T2, MAO-B (Homo sapiens, UniProt P27338); test: biochemical; details: for SI (selectivity index, ratio of IC50 MAO-A to MAO-B): MAO-A vs. MAO-B IC50 ratio; for remaining activity at 1 µM: read-out: Residual Activity (%) MAO-B (1.0 µM); for IC50: mean ± standard error of duplicates, reference compounds after 30 min preincubation with enzyme, read-out: IC50 (µM) MAO-B
T2 construct: purchased Sigma-Aldrich
T2 sequence (P27338 1-520): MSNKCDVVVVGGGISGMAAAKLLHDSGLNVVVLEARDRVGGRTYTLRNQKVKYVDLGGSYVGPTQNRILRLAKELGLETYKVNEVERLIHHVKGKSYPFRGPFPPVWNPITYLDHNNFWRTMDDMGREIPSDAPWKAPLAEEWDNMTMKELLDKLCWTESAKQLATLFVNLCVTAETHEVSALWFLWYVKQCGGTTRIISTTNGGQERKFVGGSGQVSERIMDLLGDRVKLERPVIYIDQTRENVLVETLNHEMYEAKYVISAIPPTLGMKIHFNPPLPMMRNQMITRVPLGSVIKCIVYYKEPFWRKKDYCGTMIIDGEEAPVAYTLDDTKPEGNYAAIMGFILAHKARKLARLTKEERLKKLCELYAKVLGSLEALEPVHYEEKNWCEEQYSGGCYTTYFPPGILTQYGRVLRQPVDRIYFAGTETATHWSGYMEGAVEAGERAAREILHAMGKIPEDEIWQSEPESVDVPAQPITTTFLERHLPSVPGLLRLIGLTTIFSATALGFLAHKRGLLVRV
Experimental: as §1, with “USA). […]” for “USA).”

[1] = biological target: T3, AChE (Type VI-S from Electrophorus electricus) (Electrophorus electricus, UniProt O42275); test: AChE inhibition assay (DTNB / acetylthiocholine iodide); assay type: biochemical; details: for remaining activity at 10 µM / Residual Activity (%) AChE (10 µM): compound at 10 µM, mean ± standard error of duplicate experiments; for remaining activity at 10 µM: read-out: Residual Activity (%) AChE (10 µM)
T3 construct: purchased Sigma-Aldrich Type VI-S
T3 sequence (O42275 24-633): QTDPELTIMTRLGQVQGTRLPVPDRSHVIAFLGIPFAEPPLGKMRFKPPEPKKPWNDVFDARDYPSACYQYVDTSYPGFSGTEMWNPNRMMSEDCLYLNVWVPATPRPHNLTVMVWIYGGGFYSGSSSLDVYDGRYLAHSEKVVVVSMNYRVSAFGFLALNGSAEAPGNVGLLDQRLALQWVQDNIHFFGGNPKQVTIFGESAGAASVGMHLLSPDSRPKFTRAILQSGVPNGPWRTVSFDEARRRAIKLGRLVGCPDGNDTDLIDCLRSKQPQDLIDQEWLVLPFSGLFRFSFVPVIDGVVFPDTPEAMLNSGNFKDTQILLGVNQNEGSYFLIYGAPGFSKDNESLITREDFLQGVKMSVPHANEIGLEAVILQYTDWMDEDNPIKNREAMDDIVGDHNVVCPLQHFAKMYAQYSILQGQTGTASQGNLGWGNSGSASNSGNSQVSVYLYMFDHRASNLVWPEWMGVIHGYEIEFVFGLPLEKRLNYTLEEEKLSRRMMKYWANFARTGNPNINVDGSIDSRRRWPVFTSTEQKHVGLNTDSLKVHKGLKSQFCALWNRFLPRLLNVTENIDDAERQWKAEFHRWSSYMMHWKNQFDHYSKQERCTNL
Experimental: AChE activity was measured using Type VI-S from Electrophorus electricus in the presence of 0.5 mM 5,5’-dithiobis(2-nitrobenzoic acid) and 0.5 mM acetylthiocholine iodide, as described previously. Enzymes and chemicals were purchased from Sigma–Aldrich (St. Louis, MO, USA).
Kinetic experiments were carried out at five substrate and three inhibitor concentrations.

[2] = compound at 1.0 µM, mean ± standard error of duplicate experiments

Cc1ccc(/C=C/C(=O)c2ccc(O/N=C3\CCc4ccccc43)cc2)cc1 [COE-12]
remaining activity at 1 µM (recombinant hMAO-A; [2]): 95.7 ± 2.02%
IC50 (recombinant hMAO-A): > 10 µM
SI (selectivity index, ratio of IC50 MAO-A to MAO-B) (MAO-B): >37.0
remaining activity at 1 µM (MAO-B; [2]): 40.5 ± 0.1%
IC50 (MAO-B): 0.27 ± 0.056 µM
IC50 [1]: > 40 µM
remaining activity at 10 µM [1]: 72 ± 1.95%

COc1cccc(/C=C/C(=O)c2ccc(O/N=C(\C)c3cccs3)cc2)c1 [COE-13]
Residual Activity (%) MAO-A (1.0 µM) (recombinant hMAO-A; compound at 1.0 µM, mean ± standard error of duplicate experiments, 1 µM): 46.2 ± 1.07%
remaining activity at 1 µM (recombinant hMAO-A; [2]): < 50%
IC50 (recombinant hMAO-A): 0.88 ± 0.03 µM
MAO-A potency relative to pargyline (times more potent) (recombinant hMAO-A; ratio of IC50 values): 2.8 times
MAO-A potency relative to toloxatone (times more potent) (recombinant hMAO-A; ratio of IC50 values): 1.1 times
SI (selectivity index, ratio of IC50 MAO-A to MAO-B) (MAO-B): 6.8
IC50 (MAO-B): 0.13 ± 0.0069 µM
remaining activity at 1 µM (MAO-B): 31.9 ± 9.75%
IC50 [1]: > 40 µM
remaining activity at 10 µM [1]: 57.6 ± 1.96%

COc1ccc(/C=C/C(=O)c2ccc(O/N=C(\C)c3cccc4ccccc34)cc2)cc1OC [COE-14]
remaining activity at 1 µM (recombinant hMAO-A; [2]): 91.1 ± 3.84%
IC50 (recombinant hMAO-A): > 10 µM
SI (selectivity index, ratio of IC50 MAO-A to MAO-B) (MAO-B): >6.3
IC50 (MAO-B): 1.58 ± 0.031 µM
remaining activity at 1 µM (MAO-B): 63.7 ± 1.39%
IC50 [1]: 13.2 ± 0.84 µM
remaining activity at 10 µM [1]: 62.2 ± 4.19%

COc1cc(/C=C/C(=O)c2ccc(ON=C(c3ccccc3)c3ccccc3)cc2)cc(OC)c1OC [COE-15]
remaining activity at 1 µM (recombinant hMAO-A; [2]): 95 ± 3.03%
IC50 (recombinant hMAO-A): > 10 µM
SI (selectivity index, ratio of IC50 MAO-A to MAO-B) (MAO-B): >10.5
IC50 (MAO-B): 0.95 ± 0.029 µM
remaining activity at 1 µM (MAO-B): 36.9 ± 9.49%
IC50 [1]: > 40 µM
remaining activity at 10 µM [1]: 56.9 ± 1.4%

COc1ccc(C(/C=C/c2ccccc2)=N\Oc2ccc(C(C)=O)cc2)cc1 [COE-16]
remaining activity at 1 µM (recombinant hMAO-A; [2]): 93.4 ± 3.44%
IC50 (recombinant hMAO-A): > 10 µM
IC50 (MAO-B): > 10 µM
remaining activity at 1 µM (MAO-B): 97.8 ± 0.08%
IC50 [1]: > 40 µM
remaining activity at 10 µM [1]: 77.3 ± 6.62%

COc1ccc(/C=C/C(=N/Oc2ccc(C(C)=O)cc2)c2ccc(OC)cc2)cc1 [COE-17]
remaining activity at 1 µM (recombinant hMAO-A; [2]): 80.9 ± 2.01%
IC50 (recombinant hMAO-A): > 10 µM
SI (selectivity index, ratio of IC50 MAO-A to MAO-B) (MAO-B): >13.9
IC50 (MAO-B): 0.72 ± 0.015 µM
remaining activity at 1 µM (MAO-B): 17.6 ± 2.77%
IC50 [1]: > 40 µM
remaining activity at 10 µM [1]: 80.3 ± 1.39%

COC(=O)c1ccc(O/N=C(/C=C/c2ccc(OC)cc2)c2ccc(OC)cc2)cc1 [COE-18]
remaining activity at 1 µM (recombinant hMAO-A; [2]): 88.1 ± 0.99%
IC50 (recombinant hMAO-A): > 10 µM
SI (selectivity index, ratio of IC50 MAO-A to MAO-B) (MAO-B): >11.8
IC50 (MAO-B): 0.85 ± 0.12 µM
remaining activity at 1 µM (MAO-B): 33.3 ± 0.52%
IC50 [1]: 10.6 ± 0.26 µM
remaining activity at 10 µM [1]: 58.3 ± 5.3%

COc1ccc(/C=C/C(=N/Oc2ccc(/C=C/C(=O)c3ccccc3)cc2)c2ccc(OC)cc2)cc1 [COE-19]
remaining activity at 1 µM (recombinant hMAO-A; [2]): 85.3 ± 0.99%
IC50 (recombinant hMAO-A): > 10 µM
SI (selectivity index, ratio of IC50 MAO-A to MAO-B) (MAO-B): >31.3
IC50 (MAO-B): 0.32 ± 0.015 µM
remaining activity at 1 µM (MAO-B): 19.2 ± 3.06%
IC50 [1]: 5.35 ± 0.68 µM
Residual Activity (%) AChE (10 µM) [1]: 39.0 ± 0.45%
remaining activity at 10 µM [1]: < 50%

COc1ccc(/C=C/C(=N/Oc2ccc(/C=C/C(=O)c3ccc(OC)cc3)cc2)c2ccc(OC)cc2)cc1 [COE-20]
remaining activity at 1 µM (recombinant hMAO-A; [2]): 89.7 ± 4.51%
IC50 (recombinant hMAO-A): > 10 µM
SI (selectivity index, ratio of IC50 MAO-A to MAO-B) (MAO-B): >28.6
IC50 (MAO-B): 0.35 ± 0.011 µM
remaining activity at 1 µM (MAO-B): 21 ± 0.42%
IC50 [1]: 11.2 ± 1.33 µM
remaining activity at 10 µM [1]: 60.6 ± 5.74%

COc1ccc(C(/C=C/c2ccccc2)=N\Oc2ccc(/C=C/C(=O)c3ccc(C)cc3)cc2)cc1 [COE-21]
remaining activity at 1 µM (recombinant hMAO-A; [2]): 85.8 ± 1.47%
IC50 (recombinant hMAO-A): 15.9 ± 0.59 µM
SI (selectivity index, ratio of IC50 MAO-A to MAO-B) (MAO-B): 441.7
IC50 (MAO-B): 0.036 ± 0.0019 µM
remaining activity at 1 µM (MAO-B): -2.19 ± 0.08%
IC50 [1]: 9.65 ± 1.2 µM
Residual Activity (%) AChE (10 µM) [1]: 49.4 ± 2.90%
remaining activity at 10 µM [1]: < 50%
